From the supplement of paper PMC10307832

Experiments:
Assay in all cases: relative viability (nuclei count vs DMSO), 5 days (fraction); higher = more cells survive
[1] = compound: Cc1ccc(NC(=O)c2ccc(CN3CCN(C)CC3)cc2)cc1Nc1nccc(-c2cccnc2)n1 [Imatinib] + CC(=O)Nc1cccc(-n2c(=O)n(C3CC3)c(=O)c3c(Nc4ccc(I)cc4F)n(C)c(=O)c(C)c32)c1 [Trametinib] (partner 0.02 µM)
Outline: (§1)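 Lung cancer cell lines in 1536-well plates were dosed by pin tool the day after seeding, either with one drug alone or with a fixed anchor-drug dose plus five library-drug doses (not always all listed) in √10 steps. After 5 days, cells were fixed and their nuclei stained in one step (final 0.05% Triton X-100, 1% formaldehyde, 1 ug/ml Hoechst), then counted on 4× images. Relative viability is the nuclei count in treated wells divided by that in vehicle wells. Values are medians of duplicate plates.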

[2] = compound: Cc1ccc(NC(=O)c2ccc(CN3CCN(C)CC3)cc2)cc1Nc1nccc(-c2cccnc2)n1 [Imatinib] + CS(=O)(=O)N1CCN(Cc2cc3nc(-c4cccc5[nH]ncc45)nc(N4CCOCC4)c3s2)CC1 [Pictilisib] (partner 1 µM)
Outline: as §1

[3] = compound: Cc1ccc(NC(=O)c2ccc(CN3CCN(C)CC3)cc2)cc1Nc1nccc(-c2cccnc2)n1 [Imatinib] + Cc1nc(NC(=O)N2CCC[C@H]2C(N)=O)sc1-c1ccnc(C(C)(C)C(F)(F)F)c1 [Alpelisib] (partner 2 µM)
Outline: as §1

[4] = compound: Cc1ccc(NC(=O)c2ccc(CN3CCN(C)CC3)cc2)cc1Nc1nccc(-c2cccnc2)n1 [Imatinib] + Cc1nc(Nc2ncc(C(=O)Nc3c(C)cccc3Cl)s2)cc(N2CCN(CCO)CC2)n1 [Dasatinib] (partner 0.075 µM)
Outline: as §1

LOU-NH91
relative viability ([1]; first compound 0.02 µM): 0.801
relative viability ([1]; first compound 0.06325 µM): 0.782
relative viability ([1]; first compound 0.2 µM): 0.819
relative viability ([1]; first compound 0.6325 µM): 0.83
relative viability ([1]; first compound 2 µM): 0.754
relative viability ([2]; first compound 0.02 µM): 0.51
relative viability ([2]; first compound 0.06325 µM): 0.546
relative viability ([2]; first compound 0.2 µM): 0.49
relative viability ([2]; first compound 0.6325 µM): 0.537
relative viability ([2]; first compound 2 µM): 0.498
relative viability ([3]; first compound 0.02 µM): 0.77
relative viability ([3]; first compound 0.06325 µM): 0.722
relative viability ([3]; first compound 0.2 µM): 0.729
relative viability ([3]; first compound 0.6325 µM): 0.68
relative viability ([3]; first compound 2 µM): 0.674
relative viability ([4]; first compound 0.02 µM): 0.569
relative viability ([4]; first compound 0.06325 µM): 0.581
relative viability ([4]; first compound 0.2 µM): 0.607
relative viability ([4]; first compound 0.6325 µM): 0.567
relative viability ([4]; first compound 2 µM): 0.56

BEN
relative viability ([1]; first compound 0.02 µM): 1.09
relative viability ([1]; first compound 0.06325 µM): 1.02
relative viability ([1]; first compound 0.2 µM): 1.05
relative viability ([1]; first compound 0.6325 µM): 1.1
relative viability ([1]; first compound 2 µM): 1.1
relative viability ([2]; first compound 0.02 µM): 0.609
relative viability ([2]; first compound 0.06325 µM): 0.383
relative viability ([2]; first compound 0.2 µM): 0.619
relative viability ([2]; first compound 0.6325 µM): 0.491
relative viability ([2]; first compound 2 µM): 0.673
relative viability ([3]; first compound 0.02 µM): 1.1
relative viability ([3]; first compound 0.06325 µM): 0.785
relative viability ([3]; first compound 0.2 µM): 0.93
relative viability ([3]; first compound 0.6325 µM): 1.05
relative viability ([3]; first compound 2 µM): 1.03
relative viability ([4]; first compound 0.02 µM): 0.312
relative viability ([4]; first compound 0.2 µM): 0.307
relative viability ([4]; first compound 0.6325 µM): 0.339
relative viability ([4]; first compound 2 µM): 0.296

NCI-H647
relative viability ([1]; first compound 0.02 µM): 0.512
relative viability ([1]; first compound 0.06325 µM): 0.414
relative viability ([1]; first compound 0.2 µM): 0.563
relative viability ([1]; first compound 0.6325 µM): 0.365
relative viability ([1]; first compound 2 µM): 0.458
relative viability ([2]; first compound 0.02 µM): 0.462
relative viability ([2]; first compound 0.06325 µM): 0.447
relative viability ([2]; first compound 0.2 µM): 0.433
relative viability ([2]; first compound 0.6325 µM): 0.38
relative viability ([2]; first compound 2 µM): 0.385
relative viability ([3]; first compound 0.02 µM): 1.25
relative viability ([3]; first compound 0.06325 µM): 1.4
relative viability ([3]; first compound 0.2 µM): 1.6
relative viability ([3]; first compound 0.6325 µM): 1.13
relative viability ([3]; first compound 2 µM): 1.11
relative viability ([4]; first compound 0.02 µM): 0.198
relative viability ([4]; first compound 0.06325 µM): 0.183
relative viability ([4]; first compound 0.2 µM): 0.142
relative viability ([4]; first compound 0.6325 µM): 0.181
relative viability ([4]; first compound 2 µM): 0.148

HCC-78
relative viability ([1]; first compound 0.02 µM): 0.837
relative viability ([1]; first compound 0.06325 µM): 0.613
relative viability ([1]; first compound 0.2 µM): 0.9
relative viability ([1]; first compound 0.6325 µM): 0.755
relative viability ([1]; first compound 2 µM): 0.881
relative viability ([2]; first compound 0.02 µM): 0.208
relative viability ([2]; first compound 0.06325 µM): 0.177
relative viability ([2]; first compound 0.2 µM): 0.198
relative viability ([2]; first compound 0.6325 µM): 0.207
relative viability ([2]; first compound 2 µM): 0.2
relative viability ([3]; first compound 0.02 µM): 0.319
relative viability ([3]; first compound 0.06325 µM): 0.381
relative viability ([3]; first compound 0.2 µM): 0.367
relative viability ([3]; first compound 0.6325 µM): 0.347
relative viability ([3]; first compound 2 µM): 0.348
relative viability ([4]; first compound 0.02 µM): 0.343
relative viability ([4]; first compound 0.06325 µM): 0.355
relative viability ([4]; first compound 0.2 µM): 0.403
relative viability ([4]; first compound 0.6325 µM): 0.35
relative viability ([4]; first compound 2 µM): 0.343

NCI-H2085
relative viability ([1]; first compound 0.02 µM): 0.49
relative viability ([1]; first compound 0.06325 µM): 0.515
relative viability ([1]; first compound 0.2 µM): 0.535
relative viability ([1]; first compound 0.6325 µM): 0.58
relative viability ([1]; first compound 2 µM): 0.513
relative viability ([2]; first compound 0.02 µM): 0.448
relative viability ([2]; first compound 0.06325 µM): 0.462
relative viability ([2]; first compound 0.2 µM): 0.472
relative viability ([2]; first compound 0.6325 µM): 0.594
relative viability ([2]; first compound 2 µM): 0.434
relative viability ([3]; first compound 0.02 µM): 1
relative viability ([3]; first compound 0.06325 µM): 0.937
relative viability ([3]; first compound 0.2 µM): 1.05
relative viability ([3]; first compound 0.6325 µM): 1.01
relative viability ([3]; first compound 2 µM): 0.876
relative viability ([4]; first compound 0.06325 µM): 0.18
relative viability ([4]; first compound 0.2 µM): 0.248
relative viability ([4]; first compound 0.6325 µM): 0.208
relative viability ([4]; first compound 2 µM): 0.228

NCI-H1651
relative viability ([1]; first compound 0.02 µM): 0.876
relative viability ([1]; first compound 0.06325 µM): 0.795
relative viability ([1]; first compound 0.2 µM): 0.859
relative viability ([1]; first compound 0.6325 µM): 0.84
relative viability ([1]; first compound 2 µM): 0.82
relative viability ([2]; first compound 0.02 µM): 0.759
relative viability ([2]; first compound 0.06325 µM): 0.62
relative viability ([2]; first compound 0.2 µM): 0.698
relative viability ([2]; first compound 0.6325 µM): 0.634
relative viability ([2]; first compound 2 µM): 0.569
relative viability ([3]; first compound 0.02 µM): 0.994
relative viability ([3]; first compound 0.06325 µM): 1.19
relative viability ([3]; first compound 0.2 µM): 1.18
relative viability ([3]; first compound 0.6325 µM): 0.894
relative viability ([3]; first compound 2 µM): 1.01
relative viability ([4]; first compound 0.02 µM): 0.333
relative viability ([4]; first compound 0.06325 µM): 0.355
relative viability ([4]; first compound 0.2 µM): 0.427
relative viability ([4]; first compound 0.6325 µM): 0.378
relative viability ([4]; first compound 2 µM): 0.414

NCI-H1734
relative viability ([1]; first compound 0.02 µM): 0.739
relative viability ([1]; first compound 0.2 µM): 0.689
relative viability ([1]; first compound 0.6325 µM): 0.825
relative viability ([1]; first compound 2 µM): 0.71
relative viability ([2]; first compound 0.02 µM): 0.515
relative viability ([2]; first compound 0.2 µM): 0.559
relative viability ([2]; first compound 0.6325 µM): 0.428
relative viability ([3]; first compound 0.02 µM): 0.749
relative viability ([3]; first compound 0.2 µM): 0.769
relative viability ([3]; first compound 0.6325 µM): 0.699
relative viability ([4]; first compound 0.02 µM): 0.478
relative viability ([4]; first compound 0.06325 µM): 0.457
relative viability ([4]; first compound 0.2 µM): 0.45
relative viability ([4]; first compound 0.6325 µM): 0.442
relative viability ([4]; first compound 2 µM): 0.427

LU99A
relative viability ([1]; first compound 0.02 µM): 0.53
relative viability ([1]; first compound 0.06325 µM): 0.638
relative viability ([1]; first compound 0.2 µM): 0.517
relative viability ([1]; first compound 0.6325 µM): 0.556
relative viability ([1]; first compound 2 µM): 0.318
relative viability ([2]; first compound 0.02 µM): 0.353
relative viability ([2]; first compound 0.06325 µM): 0.333
relative viability ([2]; first compound 0.2 µM): 0.3
relative viability ([2]; first compound 0.6325 µM): 0.354
relative viability ([2]; first compound 2 µM): 0.335
relative viability ([3]; first compound 0.02 µM): 0.575
relative viability ([3]; first compound 0.06325 µM): 0.604
relative viability ([3]; first compound 0.2 µM): 0.599
relative viability ([3]; first compound 0.6325 µM): 0.523
relative viability ([3]; first compound 2 µM): 0.514
relative viability ([4]; first compound 0.02 µM): 0.761
relative viability ([4]; first compound 0.06325 µM): 0.637
relative viability ([4]; first compound 0.2 µM): 0.555
relative viability ([4]; first compound 0.6325 µM): 0.736
relative viability ([4]; first compound 2 µM): 0.372
